Data from PubChem BioAssay (NCI).
Several values for one entry are separate records, joined by “and”; a condition that tells them apart may be missing. Identical values can stand only once.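 Protocol summary: plate cells (96-well), add compound at 5 concentrations, incubate 48 h, interpolate endpoints linearly. GI50: concentration for 50% inhibition of growth. At the TGI there is no net growth.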

Tests used:
Experiment in all cases: DTP human tumour cell line panel, 48 h
SN12C renal = system: SN12C renal
A549 NSCLC = system: A549 NSCLC
HCC-2998 colon = system: HCC-2998 colon
HCT-15 colon = system: HCT-15 colon
NCI-H522 lung = system: NCI-H522 lung
OVCAR-5 ovarian = system: OVCAR-5 ovarian
DU-145 prostate = system: DU-145 prostate
OVCAR-4 ovarian = system: OVCAR-4 ovarian
RPMI-8226 leukemia = system: RPMI-8226 leukemia
EKVX NSCLC = system: EKVX NSCLC

Row | Structure (SMILES) | GI50 (SN12C renal) | TGI (SN12C renal) | GI50 (A549 NSCLC) | TGI (A549 NSCLC) | GI50 (HCC-2998 colon) | TGI (HCC-2998 colon) | GI50 (HCT-15 colon) | TGI (HCT-15 colon) | GI50 (NCI-H522 lung) | TGI (NCI-H522 lung) | GI50 (OVCAR-5 ovarian) | TGI (OVCAR-5 ovarian) | GI50 (DU-145 prostate) | TGI (DU-145 prostate) | GI50 (OVCAR-4 ovarian) | TGI (OVCAR-4 ovarian) | GI50 (RPMI-8226 leukemia) | TGI (RPMI-8226 leukemia) | GI50 (EKVX NSCLC) [µM] | TGI (EKVX NSCLC)
1 | CNCCOC(=O)/C=C1/CCC2C(C(O)CC3C(C)(C(=O)OC)CCCC23C)C1C (stereo not drawn) | < 0.01 µM | 0.112 µM | < 0.01 µM | 0.0116 µM | 0.0329 µM | 0.115 µM | 0.0258 µM | 0.0654 µM | < 0.01 µM | 0.0203 µM | 0.0264 µM | 0.0693 µM | 0.016 µM | 0.0305 µM | 0.0183 µM | 0.034 µM | 0.0248 µM | 0.0657 µM | < 0.0136 | 0.0331 µM
2 | Cc1cc(NC(=O)NC(=O)c2ccccc2NC(=O)CN)ccc1Oc1ncc(Br)cn1 | 0.508 µM | 38 µM and 49.1 µM |  | 35.8 µM | 0.354 µM | 18 µM and 2.68 µM |  | 42.2 µM | 0.269 µM and 0.096 µM | 2.24 µM and 0.472 µM | 0.541 µM | 43.6 µM and 75.2 µM | 0.342 µM | 20.1 µM and 15.9 µM | 17 µM | 45.4 µM and > 100 µM | 0.306 µM | 57.1 µM and > 100 µM |  | 39.1 µM and 49.2 µM
3 | COC(=O)[C@]12CC=C3O[C@@H]4OC5(CCCCC5)O[C@@H]4[C@H]3C1C(=O)C=CC2=O (stereo partly drawn) |  | 35.1 µM |  | 55 µM |  | 31.4 µM |  | 34.2 µM |  | 15.4 µM |  | 38.8 µM |  | 47.2 µM |  | 31.4 µM |  | 21.6 µM |  | 52.1 µM
4 | NC1=C(Cl)C(=O)c2ccccc2C1=O |  | 15.9 µM |  | 8.44 µM |  | 24.4 µM |  | 12.2 µM |  | 18.5 µM |  | 23.7 µM |  | 3.84 µM |  | 15.9 µM |  | 43.6 µM |  | 28.4 µM
5 | COc1cc(-c2n/c(=C\c3c(O)[nH]c4ccccc34)cc3c2=Nc2ccccc2-3)cc(OC)c1OC | 0.523 µM | > 100 µM | 0.675 µM | > 100 µM | 2.32 µM | 6.48 µM | 1.72 µM | > 100 µM | 0.247 µM | 0.664 µM | 4.32 µM | > 100 µM | 1.12 µM | > 100 µM | 0.506 µM | > 100 µM | 3.09 µM | > 26.4 µM | > 24.9 | > 100 µM
6 | CO/N=C(/COc1c(-c2ccccc2)oc2ccccc2c1=O)c1ccc(F)cc1 | 35.1 µM | > 100 µM | 57.4 µM | > 100 µM | > 100 µM | > 100 µM | > 100 µM | > 100 µM | 36.4 µM | > 100 µM | > 100 µM | > 100 µM | > 100 µM | > 100 µM | 25.9 µM | 71.4 µM | 72.1 µM | > 100 µM | > 100 | > 100 µM
7 | CO/C(=N\N=C\c1cccc(C(F)(F)F)c1)c1ccncc1 | 16.7 µM | > 100 µM | 15.5 µM | > 100 µM |  | 22.5 µM | 4.54 µM | 68.2 µM | 6.41 µM | 30.3 µM |  | > 100 µM | 33.6 µM | > 100 µM |  | > 100 µM | 7.15 µM | 81.9 µM |  | 77.3 µM
8 | Oc1cc(Cl)ccc1Cc1ccc(Cl)cc1O | 7.92 µM | 20.6 µM | 14.7 µM | 41.1 µM | 14.6 µM | 27.7 µM | 8.09 µM | 20.3 µM | 3.86 µM | 15 µM | 15.1 µM | 31.8 µM | 10.4 µM | 23.2 µM | 6.6 µM | 34.8 µM | 6.01 µM | > 100 µM | 5.56 | 36 µM
9 | COc1ccc(C(=O)CC(c2ccc(OC)c(OC)c2)c2c(O)c3ccccc3oc2=O)cc1OC (stereo not drawn) |  | > 100 µM |  | > 100 µM |  | > 100 µM |  | > 100 µM |  | > 100 µM |  | > 100 µM |  | > 100 µM |  | > 100 µM |  | > 100 µM |  | > 100 µM
10 | CCOC(=O)/C(=C\c1ccc(F)cc1)C(C)=O |  | > 100 µM |  | > 100 µM |  | 26.6 µM |  | 44.2 µM |  | 29.5 µM |  | > 100 µM |  | 56.8 µM |  | > 100 µM |  | 53 µM |  | 83.6 µM
11 | CN1CCC(n2[nH]c(-c3ccccc3)c(Cc3ccccc3)c2=O)CC1 |  | > 100 µM |  | > 100 µM |  | > 100 µM |  | > 100 µM |  | > 100 µM |  | > 100 µM |  | > 100 µM |  | > 100 µM |  | > 100 µM |  | > 100 µM
12 | C=C(C)[C@@H]1CC[C@]2(C(=O)NCCNCCNCCN)CC[C@]3(C)[C@H](CC[C@@H]4[C@@]5(C)CCC(=O)C(C)(C)[C@@H]5CC[C@]43C)[C@@H]12 | 7.56 µM | 15.3 µM | 7.69 µM | 15.9 µM | 7.16 µM | 14.8 µM | 7.65 µM | 15.7 µM | 8.72 µM | 18.5 µM | 8.78 µM | 18.4 µM | 7.47 µM | 14.1 µM | 7.39 µM | 15.3 µM | 6.78 µM | 22 µM | 7.34 | 14 µM
13 | C[C@@H]1COC(Nc2ccc3ncnc(Nc4ccc(OCc5nccs5)c(Cl)c4)c3c2)=N1 | 6.15 µM and 4.86 µM | > 10 µM and 26 µM | > 10 µM and 5.3 µM | > 10 µM and 32.4 µM | > 10 µM and 11.9 µM | > 10 µM and 39.6 µM | 4.07 µM and 5.32 µM | > 10 µM and 25.6 µM | 0.237 µM and 0.49 µM | > 10 µM and 4.65 µM | > 10 µM and 11.9 µM | > 10 µM and 33.3 µM | 3.19 µM and 3.26 µM | > 10 µM and 19.3 µM | 5.72 µM and 3.79 µM | > 10 µM and 17.3 µM | 3.29 µM and 2.56 µM | > 10 µM and 11.1 µM | 0.252 | > 10 µM
14 | Cc1cc2nc3c4cccc(O)c4n(CCN(C)C)c3nc2cc1C | 2.28 µM | 13.8 µM | 1.41 µM | 12.5 µM | 1.46 µM | 2.99 µM | 1.29 µM | 3.79 µM | 2.15 µM | 6.49 µM | 2.97 µM | 9.1 µM | 2.96 µM | 8.79 µM | 2.89 µM | 11.9 µM | 1.36 µM | 4.62 µM | 2.89 | 17.7 µM
